Laboratory results: PubChem BioAssay (NCI)
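Test compounds were applied to cells in 96-well plates for 48 hours at 5 doses. TGI is the concentration that stops growth completely.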

Each compound was assayed on HL-60(TB) leukemia (assay: NCI-60 cell line screen, 48 h).

| Structure (SMILES) | TGI [µM] |
| --- | --- |
| O=C(CCC(=O)Nc1ccc(Cl)c(Cl)c1)CC(=O)c1ccc(Cl)cc1 | > 100 |
| N#CNC1=NC(Cc2ccccc2)C(=O)N1CCc1c[nH]c2ccccc12 (configuration not stated) | 60.5 |

Each compound was assayed on HOP-62 NSCLC (assay: NCI-60 cell line screen, 48 h).

| Structure (SMILES) | TGI [µM] |
| --- | --- |
| CCC1(O)C(=O)OCc2c1cc1n(c2=O)Cc2cc3cc(OC)c(OC)cc3nc2-1 (configuration not stated) | 8.38 |
| FC(F)(F)c1cccc(C=NC23CC4CC(CC(C4)C2)C3)c1 | > 100 |
| COc1ccc(Cc2nccc3cc(OC)c(OC)cc23)cc1 | > 100 |
| N#CNC1=NC(Cc2ccccc2)C(=O)N1CCc1c[nH]c2ccccc12 (configuration not stated) | 92.1 |

What follows are compounds tested on SW-620 colon (assay: NCI-60 cell line screen, 48 h).

| Structure (SMILES) | TGI [µM] |
| --- | --- |
| FC(F)(F)c1cccc(C=NC23CC4CC(CC(C4)C2)C3)c1 | > 100 |
| O=C(CCC(=O)Nc1ccc(Cl)c(Cl)c1)CC(=O)c1ccc(Cl)cc1 | > 100 |
| COc1ccc(Cc2nccc3cc(OC)c(OC)cc23)cc1 | > 100 |
| N#CNC1=NC(Cc2ccccc2)C(=O)N1CCc1c[nH]c2ccccc12 (configuration not stated) | > 100 |

What follows are compounds tested on OVCAR-8 ovarian (assay: NCI-60 cell line screen, 48 h).

| Structure (SMILES) | TGI [µM] |
| --- | --- |
| CCC1(O)C(=O)OCc2c1cc1n(c2=O)Cc2cc3cc(OC)c(OC)cc3nc2-1 (configuration not stated) | > 100 |
| FC(F)(F)c1cccc(C=NC23CC4CC(CC(C4)C2)C3)c1 | > 100 |
| O=C(CCC(=O)Nc1ccc(Cl)c(Cl)c1)CC(=O)c1ccc(Cl)cc1 | > 100 |
| COc1ccc(Cc2nccc3cc(OC)c(OC)cc23)cc1 | > 100 |
| N#CNC1=NC(Cc2ccccc2)C(=O)N1CCc1c[nH]c2ccccc12 (configuration not stated) | > 100 |

The compounds below were run on KM12 colon (assay: NCI-60 cell line screen, 48 h).

| Structure (SMILES) | TGI [µM] |
| --- | --- |
| CCC1(O)C(=O)OCc2c1cc1n(c2=O)Cc2cc3cc(OC)c(OC)cc3nc2-1 (configuration not stated) | > 100 |
| FC(F)(F)c1cccc(C=NC23CC4CC(CC(C4)C2)C3)c1 | > 100 |
| O=C(CCC(=O)Nc1ccc(Cl)c(Cl)c1)CC(=O)c1ccc(Cl)cc1 | > 100 |
| COc1ccc(Cc2nccc3cc(OC)c(OC)cc23)cc1 | > 100 |
| N#CNC1=NC(Cc2ccccc2)C(=O)N1CCc1c[nH]c2ccccc12 (configuration not stated) | > 100 |

The compounds below were run on M14 melanoma (assay: NCI-60 cell line screen, 48 h).

| Structure (SMILES) | TGI [µM] |
| --- | --- |
| CCC1(O)C(=O)OCc2c1cc1n(c2=O)Cc2cc3cc(OC)c(OC)cc3nc2-1 (configuration not stated) | > 100 |
| FC(F)(F)c1cccc(C=NC23CC4CC(CC(C4)C2)C3)c1 | > 100 |
| O=C(CCC(=O)Nc1ccc(Cl)c(Cl)c1)CC(=O)c1ccc(Cl)cc1 | > 100 |
| COc1ccc(Cc2nccc3cc(OC)c(OC)cc23)cc1 | > 100 |
| N#CNC1=NC(Cc2ccccc2)C(=O)N1CCc1c[nH]c2ccccc12 (configuration not stated) | > 100 |

Each compound was assayed on M19-MEL melanoma (assay: NCI-60 cell line screen, 48 h).

| Structure (SMILES) | TGI [µM] |
| --- | --- |
| FC(F)(F)c1cccc(C=NC23CC4CC(CC(C4)C2)C3)c1 | > 100 |
| O=C(CCC(=O)Nc1ccc(Cl)c(Cl)c1)CC(=O)c1ccc(Cl)cc1 | > 100 |
| COc1ccc(Cc2nccc3cc(OC)c(OC)cc23)cc1 | > 100 |
| N#CNC1=NC(Cc2ccccc2)C(=O)N1CCc1c[nH]c2ccccc12 (configuration not stated) | 92.4 |

These compounds were tested on SN12C renal (assay: NCI-60 cell line screen, 48 h).

| Structure (SMILES) | TGI [µM] |
| --- | --- |
| CCC1(O)C(=O)OCc2c1cc1n(c2=O)Cc2cc3cc(OC)c(OC)cc3nc2-1 (configuration not stated) | 87.4 |
| FC(F)(F)c1cccc(C=NC23CC4CC(CC(C4)C2)C3)c1 | > 100 |
| O=C(CCC(=O)Nc1ccc(Cl)c(Cl)c1)CC(=O)c1ccc(Cl)cc1 | > 100 |
| COc1ccc(Cc2nccc3cc(OC)c(OC)cc23)cc1 | > 100 |
| N#CNC1=NC(Cc2ccccc2)C(=O)N1CCc1c[nH]c2ccccc12 (configuration not stated) | > 100 |

These compounds were tested on NCI-H522 lung (assay: NCI-60 cell line screen, 48 h).

| Structure (SMILES) | TGI [µM] |
| --- | --- |
| CCC1(O)C(=O)OCc2c1cc1n(c2=O)Cc2cc3cc(OC)c(OC)cc3nc2-1 (configuration not stated) | > 100 |
| O=C(CCC(=O)Nc1ccc(Cl)c(Cl)c1)CC(=O)c1ccc(Cl)cc1 | > 100 |
| COc1ccc(Cc2nccc3cc(OC)c(OC)cc23)cc1 | > 100 |

These compounds were tested on HOP-92 NSCLC (assay: NCI-60 cell line screen, 48 h).

| Structure (SMILES) | TGI [µM] |
| --- | --- |
| CCC1(O)C(=O)OCc2c1cc1n(c2=O)Cc2cc3cc(OC)c(OC)cc3nc2-1 (configuration not stated) | > 100 |
| O=C(CCC(=O)Nc1ccc(Cl)c(Cl)c1)CC(=O)c1ccc(Cl)cc1 | > 100 |

The compounds below were run on SK-MEL-5 melanoma (assay: NCI-60 cell line screen, 48 h).

| Structure (SMILES) | TGI [µM] |
| --- | --- |
| CCC1(O)C(=O)OCc2c1cc1n(c2=O)Cc2cc3cc(OC)c(OC)cc3nc2-1 (configuration not stated) | > 100 |
| FC(F)(F)c1cccc(C=NC23CC4CC(CC(C4)C2)C3)c1 | > 100 |
| COc1ccc(Cc2nccc3cc(OC)c(OC)cc23)cc1 | > 100 |
| N#CNC1=NC(Cc2ccccc2)C(=O)N1CCc1c[nH]c2ccccc12 (configuration not stated) | 41.7 |

Each compound was assayed on ACHN renal (assay: NCI-60 cell line screen, 48 h).

| Structure (SMILES) | TGI [µM] |
| --- | --- |
| CCC1(O)C(=O)OCc2c1cc1n(c2=O)Cc2cc3cc(OC)c(OC)cc3nc2-1 (configuration not stated) | 37.3 |
| FC(F)(F)c1cccc(C=NC23CC4CC(CC(C4)C2)C3)c1 | > 100 |
| O=C(CCC(=O)Nc1ccc(Cl)c(Cl)c1)CC(=O)c1ccc(Cl)cc1 | > 100 |
| COc1ccc(Cc2nccc3cc(OC)c(OC)cc23)cc1 | > 100 |

These compounds were tested on EKVX NSCLC (assay: NCI-60 cell line screen, 48 h).

| Structure (SMILES) | TGI [µM] |
| --- | --- |
| CCC1(O)C(=O)OCc2c1cc1n(c2=O)Cc2cc3cc(OC)c(OC)cc3nc2-1 (configuration not stated) | > 100 |
| FC(F)(F)c1cccc(C=NC23CC4CC(CC(C4)C2)C3)c1 | > 100 |
| O=C(CCC(=O)Nc1ccc(Cl)c(Cl)c1)CC(=O)c1ccc(Cl)cc1 | > 100 |
| COc1ccc(Cc2nccc3cc(OC)c(OC)cc23)cc1 | > 100 |
| N#CNC1=NC(Cc2ccccc2)C(=O)N1CCc1c[nH]c2ccccc12 (configuration not stated) | 81.5 |

The compounds below were run on LXFL 529 NSCLC (assay: NCI-60 cell line screen, 48 h).

| Structure (SMILES) | TGI [µM] |
| --- | --- |
| CCC1(O)C(=O)OCc2c1cc1n(c2=O)Cc2cc3cc(OC)c(OC)cc3nc2-1 (configuration not stated) | > 100 |
| O=C(CCC(=O)Nc1ccc(Cl)c(Cl)c1)CC(=O)c1ccc(Cl)cc1 | > 100 |
| COc1ccc(Cc2nccc3cc(OC)c(OC)cc23)cc1 | > 100 |
| N#CNC1=NC(Cc2ccccc2)C(=O)N1CCc1c[nH]c2ccccc12 (configuration not stated) | > 100 |

These compounds were tested on SNB-78 CNS (assay: NCI-60 cell line screen, 48 h).

| Structure (SMILES) | TGI [µM] |
| --- | --- |
| FC(F)(F)c1cccc(C=NC23CC4CC(CC(C4)C2)C3)c1 | > 100 |
| COc1ccc(Cc2nccc3cc(OC)c(OC)cc23)cc1 | > 100 |
| N#CNC1=NC(Cc2ccccc2)C(=O)N1CCc1c[nH]c2ccccc12 (configuration not stated) | 63 |

What follows are compounds tested on SK-OV-3 ovarian (assay: NCI-60 cell line screen, 48 h).

| Structure (SMILES) | TGI [µM] |
| --- | --- |
| CCC1(O)C(=O)OCc2c1cc1n(c2=O)Cc2cc3cc(OC)c(OC)cc3nc2-1 (configuration not stated) | 89 |
| FC(F)(F)c1cccc(C=NC23CC4CC(CC(C4)C2)C3)c1 | > 100 |
| O=C(CCC(=O)Nc1ccc(Cl)c(Cl)c1)CC(=O)c1ccc(Cl)cc1 | > 100 |
